# Measurements published in publication PMC8200345 (American Journal of Clinical Dermatology, 2021).
# Like-named read-outs stand apart in the source and are kept apart here.
# Assays:
# Phase II study = type: in vivo, human (adult patients with atopic dermatitis); conditions: Phase II SLR (QD only); log-transformed Ctrough week 4 vs API dose
# [1] = human, in vivo
# [2] = phase III studies combined
# [3] = cited from earlier work
# [4] = cited from earlier work; remark: listed apart in the source
# [5] = any of the three studies in atopic dermatitis
smiles,measurement,setting,value
N#CC[C@H](C1CCCC1)n1cc(-c2ncnc3[nH]ccc23)cn1 [ruxolitinib],"Dose-PK model: exponent on API dose (regression slope), estimate",Phase II study,0.805
same,"Dose-PK model: exponent on API dose (regression slope), estimate",[1],0.801
same,"Dose-PK model: exponent on API dose, estimate",[1],0.462
same,"Dose-PK model: exponent on baseline IGA 3, estimate",[1],0.322
same,"Dose-PK model: exponent on region = Europe, estimate",[1],0.782
same,Mean Css as percent of the whole blood IC50 value,[1],< 15%
same,Correlation between ruxolitinib Css quartiles and absolute neutrophil count,[2],no correlation
same,Average Css,[3]; 25 mg BID oral,~ 350 nM
same,Maximum tolerated dose,"[3]; oral, patients with myelofibrosis",25 mg BID
same,Bioavailability after oral dosing,[4],near-complete
same,Changes in hematological parameters,[5],no clinically relevant changes
